Where “and” joins values, the source holds several entries; their conditions need not be identical. Equal values may be shown once.
Tested on: MIN6 mouse insulinoma cells, cytotoxicity counterscreen
Assay: MIN6 cell viability loss – mouse insulinoma, cytotoxicity control, dose response (AID 2122)

CN(C)c1ccnc2c[cH-]cc12.[Fe].c1ccc(-[c-]2[c-](-c3ccccc3)[c-](-c3ccccc3)[c-](-c3ccccc3)[c-]2-c2ccccc2)cc1 (stereo unspecified)
IC50: 4.89 µM and 2.24 µM
